# In patent US10894945B2, “Methods for improving proliferation and stemness of limbal stem cells” (CATHOLIC UNIVERSITY INDUSTRY ACADEMIC COOPERATION FOUNDATION, priority 2016, dated 2021):
# How the values were obtained:
# [1] = test system: limbal stem cells (LSCs) in limbal explant outgrowth cultures; assay: Flow cytometry of JC1 low side population in limbal explant outgrowth cultures; format: cell-based, human; details: for % JC1^low, Mean: Explant culture, Table 1; for JC1 exclusion cell cohort (JC1^low) / percentage in a lower left quadrant (LLQ): limbal explant culture; for JC1 exclusion cell cohort (JC1^low): 10 μM IWP2 or 3 μM CHIR99021 (FIG. 3); for percentage in a lower left quadrant (LLQ): 10 μM IWP2 or 3 μM CHIR99021, FSC/SSC, stem/precursor somatic cells (FIG. 3)
# Protocol: First, a 0.4-μm pore polyester membrane insert (Costar, NY) with a diameter of 25 mm was put into a 6-well plate, and pre-equilibrated overnight cultured in a supplemented hormonal epithelial medium (SHEM). The SHEM was composed of 950 ml of Dulbecco's modified minimal essential medium (DMEM)/F-12 medium in which DMEM and Ham F12 are mixed in a ratio of 1:1, 50 ml of fetal bovine serum (FBS), 5 ng of a human recombinant epidermal growth factor (EGF), 28 mg of phosphoethanolamine, lx insulin-transferrin-selenium (ITS, Gibco), and 1× penicillin-streptomycin (Gibco). […] After 72 hours of culturing, the presence of an encircling island of outgrowth cells were confirmed, and then the medium was replaced with a fresh medium that just covered a surface of the explant, every 72 hours. Here, the cells were cultured with 10 μM of the Wnt inhibitor (IWP2) or 3 μM of the GSK3 inhibitor (CHIR99021), and then experiments that will be described below were performed. In order to determine a relative cell size and ABCG2 efflux activity, cells from limal explant outgrowth cultures were harvested by treatment with trypsin, the collected cells were seeded in 6-well plates at a cell density of 2×10^4/well, treated with 250 nM JC1 dye and incubated for 45 minutes. Afterward, the cells were detached again by trypsin treatment and diluted with FACS buffer to perform FACS analysis. JC1 is a dye binding to mitochondria in cells, efflux of the JC1 dye from cells in a side population strongly expressing ATP-binding cassette sub-family G member 2 (ABCG2) results in inhibition of mitochondria staining. Therefore, flow cytometry was performed on the cells treated with the JC1 dye using a FACS Calibur (BD Biosciences) at an emission wavelength of 531(green)/585(orange), and the side population (JC1^low) that was not stained with JC1 was measured.
# [2] = test system: LSC markers p63α and ABCG2, differentiation marker Krt3; assay: Western blot of LSC markers and differentiation marker in limbal explant outgrowth cells; format: cell-based, human; details: for expression of the differentiation marker Krt3: western blot (FIG. 4); for protein expression of LSC marker ABCG2 / protein expression of LSC marker p63α: western blot, compared with control (FIG. 4)
# Protocol: First, a 0.4-μm pore polyester membrane insert (Costar, NY) with a diameter of 25 mm was put into a 6-well plate, and pre-equilibrated overnight cultured in a supplemented hormonal epithelial medium (SHEM). The SHEM was composed of 950 ml of Dulbecco's modified minimal essential medium (DMEM)/F-12 medium in which DMEM and Ham F12 are mixed in a ratio of 1:1, 50 ml of fetal bovine serum (FBS), 5 ng of a human recombinant epidermal growth factor (EGF), 28 mg of phosphoethanolamine, lx insulin-transferrin-selenium (ITS, Gibco), and 1× penicillin-streptomycin (Gibco). Afterward, the limbal tissue cut into 8 sections with a length of 4 mm according to the method described in Example 1-1 was put on a polyester membrane to dispose an epithelial part face-up, and cultured under an air-liquid interface condition. After 72 hours of culturing, the presence of an encircling island of outgrowth cells were confirmed, and then the medium was replaced with a fresh medium that just covered a surface of the explant, every 72 hours. Here, the cells were cultured with 10 μM of the Wnt inhibitor (IWP2) or 3 μM of the GSK3 inhibitor (CHIR99021), and then experiments that will be described below were performed. Limbal explant outgrowth cells were washed with PBS, and lysed with a lysis buffer containing phosphatase inhibitor cocktail 2 (Sigma-Aldrich) and protease inhibitor cocktail (Roche Diagnostics). A lysate was boiled with a sample-loading buffer for 10 minutes and then centrifuged, resulting in isolation of a supernatant containing proteins in the cells, and a protein concentration was quantified using a BCA Protein Assay kit (Thermo Fisher Scientific, Rockford, Ill.). Afterward, equal amounts of protein in cell lysates were separated by 10% SDS-polyacrylamide gel electrophoresis (SDS-PAGE) under reducing conditions and electro-transferred to a PVDF membrane (Millipore, Billerica, Mass.). Afterward, The membrane was blocked with 5% skim milk in PBS containing 0.1% Tween 20, incubated at 4° C. for 18 h with primary mouse monoclonal antibodies (Abs) recognizing, β-catenin (BD Biosciences), ABCG2 (Abcam), Krt3 (Abcam) or a rabbit polyclonal antibody recognizing p63α (Abcam). After the washes, the membrane was incubated with a horseradish peroxidase-binding anti-mouse or anti-rabbit secondary antibody at room temperature for 1 hour. The membrane incubating with the secondary antibody was washed with 0.1% Tween 20-added PBS three times, treated with an ECL solution (Amersham Biosciences, Sweden) as a chemiluminescence reagent and developed, thereby analyzing an expression level of a protein to be observed. Also, to correct protein levels of the samples, a mouse monoclonal anti-β-actin primary antibody reacted with the membrane, and subsequent procedures were the same as described above. To identify effects of the Wnt/β-catenin signaling on LSC differentiation during the limbal explant culture, expression levels of the LSC markers p63α and ABCG2, and the differentiation marker Krt3 protein in the explant outgrowth cells were detected by western blot analysis according to the method described in Example 1-5.
# [3] = test system: human limbal epithelial cells; assay: Viable cell count / cell yield in isolated limbal epithelial cell (single cell) culture; format: cell-based; details: for Cell count, Mean: Epithelial cells (single cell culture), Table 1
# Protocol: (§1) The limbal tissue divided according to the method described in Example 1-1 was treated with 2 mg/ml Dispase II (Roche, Indianapolis, Ind.) diluted with keratinocyte medium (KSFM; Invitrogen, Carlsbad, Calif.) and overnight cultured at 4° C. Afterward, a limbal epithelium layer was gently sloughed off from its stromal base under the dissecting microscope, the epithelium layer was treated with TrypLE (GIBCO, Denmark) and cultured for 10 minutes, and then triturated with a pipette to generate a single cell suspension. These cells were seeded into a 25T flask coated with human type I collagen (PureCol^R, Biomatrix, SanDiego, Calif.) to be dispensed at a density of 2×10^5 cells/flask, and cultured in Cnt50 medium (Cell-N-Tec, Bern, Switzerland) complemented with bovine pituitary extract for up to 2 weeks.
# According to Examples 2 to 4, it was identified that, in the limbal explant culture, the Wnt/β-catenin signaling is involved in the stimulation of explant outgrowth proliferation per unit area, and sternness improvement and differentiation inhibition of LSCs. Accordingly, an experiment was conducted to confirm whether the same effects as described above would be obtained, even when limbal epithelial cells were dissociated according to the method described in Example 1-3, and cultured as single cells. To this end, the limbal explant outgrowth cells according to the method described in Example 1-2 and the cells proliferated from the limbal epithelial cells according to the method described in Example 1-3 were harvested, and each type of cells was subjected to FACS analysis to measure a JC1^low ratio.
# Based on the results of Example 6-1, cells cultured by the same method as described above were recovered to measure viable cell counts, yields of the limbal epithelial cells were measured.
# [4] = test system: limbal explant outgrowth cells; assay: Colony forming efficiency assay of cells harvested from explant outgrowth cultures; format: cell-based, human; details: cells from treated limbal explant outgrowth; cultured up to day 14; compared with control (FIG. 5)
# Protocol: First, a 0.4-μm pore polyester membrane insert (Costar, NY) with a diameter of 25 mm was put into a 6-well plate, and pre-equilibrated overnight cultured in a supplemented hormonal epithelial medium (SHEM). The SHEM was composed of 950 ml of Dulbecco's modified minimal essential medium (DMEM)/F-12 medium in which DMEM and Ham F12 are mixed in a ratio of 1:1, 50 ml of fetal bovine serum (FBS), 5 ng of a human recombinant epidermal growth factor (EGF), 28 mg of phosphoethanolamine, lx insulin-transferrin-selenium (ITS, Gibco), and 1× penicillin-streptomycin (Gibco). […] After 72 hours of culturing, the presence of an encircling island of outgrowth cells were confirmed, and then the medium was replaced with a fresh medium that just covered a surface of the explant, every 72 hours. Here, the cells were cultured with 10 μM of the Wnt inhibitor (IWP2) or 3 μM of the GSK3 inhibitor (CHIR99021), and then experiments that will be described below were performed.
# [5] = test system: human limbal explant; assay: Limbal explant outgrowth culture: outgrowth proliferation, area, cell yield, cell density; format: cell-based; details: for stained outgrowth area / cell yields: 10 μM IWP2 or 3 μM CHIR99021; for stained outgrowth area: Commassie blue R 250 staining, compared with control (FIG. 2a, 2b); for cell yields: trypan blue, hemocytometer, compared with normal control (FIG. 2c); for outgrowth proliferation rates of the explant: 10 μM IWP2 or 3 μM CHIR99021 in medium, phase contrast microscope, day 4 and 8, compared with control (FIG. 1); for Cell count, Mean: Explant culture, Table 1
# Protocol: The corneal limbal tissue satisfying the above-described conditions was splitted into […] using a surgical instrument on a horizontal sterile-air-flow hood, and the conjunctival edge of each quarter was immersed shortly in 1% trypan blue (Sigma, USA) to stain conjunctival stroma, and all remnants of conjunctiva were carefully removed using conjunctival scissors. Afterward, a sclera tissue was trimmed away, and then each limbal strip was prepared after being cut to a thickness of 0.5 mm using a sharp blade. First, a 0.4-μm pore polyester membrane insert (Costar, NY) with a diameter of 25 mm was put into a 6-well plate, and pre-equilibrated overnight cultured in a supplemented hormonal epithelial medium (SHEM). The SHEM was composed of 950 ml of Dulbecco's modified minimal essential medium (DMEM)/F-12 medium in which DMEM and Ham F12 are mixed in a ratio of 1:1, 50 ml of fetal bovine serum (FBS), 5 ng of a human recombinant epidermal growth factor (EGF), 28 mg of phosphoethanolamine, lx insulin-transferrin-selenium (ITS, Gibco), and 1× penicillin-streptomycin (Gibco). Afterward, the limbal tissue cut into 8 sections with a length of 4 mm according to the method described in Example 1-1 was put on a polyester membrane to dispose an epithelial part face-up, and cultured under an air-liquid interface condition. After 72 hours of culturing, the presence of an encircling island of outgrowth cells were confirmed, and then the medium was replaced with a fresh medium that just covered a surface of the explant, every 72 hours. Here, the cells were cultured with 10 μM of the Wnt inhibitor (IWP2) or 3 μM of the GSK3 inhibitor (CHIR99021), and then experiments that will be described below were performed. To identify effects of the Wnt/β-catenin signaling on the limbal explant outgrowth cultures, cells were cultured by adding 10 μM of the Wnt inhibitor IWP2 or 3 μM of the Wnt signaling agonist CHIR99021 as a GSK3 inhibitor to a medium under the culture conditions for a human limbal explant cultures according to the methods described in Examples 1-1 and 1-2, and explant outgrowth proliferation was observed using a phase contrast microscope on day 4 and 8. […] In addition, cells were harvested by treating the limbal explant cultures with trypsin, stained with a 0.4% trypan blue solution, and cell yields were measured using a hemocytometer and then cell densities were quantitatively analyzed.
# [6] = test system: human limbal epithelial cells; assay: Flow cytometry of JC1 low ratio in isolated limbal epithelial cell (single cell) culture; format: cell-based; details: Table 1
# Protocol: as §1
# In order to determine a relative cell size and ABCG2 efflux activity, cells from limal explant outgrowth cultures were harvested by treatment with trypsin, the collected cells were seeded in 6-well plates at a cell density of 2×10^4/well, treated with 250 nM JC1 dye and incubated for 45 minutes. […] Therefore, flow cytometry was performed on the cells treated with the JC1 dye using a FACS Calibur (BD Biosciences) at an emission wavelength of 531(green)/585(orange), and the side population (JC1^low) that was not stained with JC1 was measured. […]
SMILES,"% JC1^low, Mean [1] [%]",JC1 exclusion cell cohort (JC1^low) [1] [%],percentage in a lower left quadrant (LLQ) [1] [%],expression of the differentiation marker Krt3 [2],protein expression of LSC marker ABCG2 [2],protein expression of LSC marker p63α [2],"Cell count, Mean [3]",cell yields (viable cell counts) ([3]; single cell culture of limbal tissues (FIG. 6)),colony forming efficiency (CFE) [4],stained outgrowth area [5],cell yields [5],outgrowth proliferation rates of the explant [5],"Cell count, Mean [5]","% JC1^low, Mean [6] [%]","cell density ([5]; 10 μM IWP2, cells/mm^2, compared with control and CHIR99021 group (FIG. 2d))"
Cc1c[nH]c(-c2cnc(NCCNc3ccc(C#N)cn3)nc2-c2ccc(Cl)cc2Cl)n1 [CHIR99021],6.4,10.9±1.3,50.7±10.1,increased,remarkably decreased,remarkably decreased,7.0 1 × 10^5,very low,remarkably lower CFE,smaller area,significantly decreased,sequentially decreased,0.8 1 × 10^5,23.9,
"Cc1ccc2nc(NC(=O)CSc3nc4c(c(=O)n3-c3ccccc3)SCC4)sc2c1 [IWP2, N-(6-Methyl-2-benzothiazolyl)-2-[(3,4,6,7-tetrahydro-4-oxo-3-phenylthieno[3,2-d]pyrimidin-2-yl)thio]-acetamide]",27.9,29.6±2.6,72.8±1.9,barely expressed,remarkably increased,remarkably increased,4.1 1 × 10^5,,remarkably higher CFE,subsequently increased,no difference in cell yields,sequentially decreased,4.3 1 × 10^5,9.8,highest cell density
